Measured values: patent US20230348376A1 (TEIJIN PHARMA LIMITED, priority 2020, published 2023)

Key:
[1] = test system: rat oligodendrocyte progenitor cells; assay: Promotive activity of rat oligodendrocyte progenitor cell differentiation-2 (immunostaining of MBP); type: cell-based; details: Test 1; vitamin D derivative 2 μM, T3 30 nM; 4 days
Method in brief: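 Rat OPCs prepared by shaking in separation medium about 22 h at 37 °C, 200 rpm, and collecting the supernatant.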

[2] = Evaluation of brain penetration in mice (blood and brain concentration at brain Cmax); type: in vivo, mouse; details: 1 mg/kg single oral dose, C57BL/6J mice; for Concentration in blood (mean ± SD) at brain Cmax / Concentration in brain (mean ± SD) at brain Cmax: n=3; for Kp: male, C57BL/6J, mouse, brain/plasma, po, 1 mg/kg, read-out: Concentration in brain/in blood ratio at brain Cmax
Method in brief: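 Male C57BL/6J mice (8 weeks, n=3) dosed orally once at 1 […] mg/kg; plasma and brain collected at 0.25, 0.5, 1, 2, 4 and 8 h. Compound extracted with acetonitrile from brain homogenate and plasma, quantified by LC/MS/MS.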

[3] = test system: mouse cuprizone model; assay: Myelin regeneration promoting action in mouse cuprizone model (LFB staining of corpus callosum); type: in vivo; details: 4 weeks after 6 weeks cuprizone diet, untreated = 100%
Excerpt: C57BL/6J mice (8 weeks old, male) were fed a diet containing 0.3% cuprizone (bis(cyclohexanone)oxaldihydrazone) (Research Diets, Inc. #D17042709) for 6 weeks to induce demyelination. Subsequently, the mice were divided into groups of 8 mice based on the body weight, the diet was switched to a cuprizone-free diet (Research Diets, Inc. #D10001), and administration of the test compound or vehicle was started. […] After administration of 4 weeks, the mice were euthanized, perfused with a 4% paraformaldehyde solution, and then brain sampling was performed. The brain sample obtained was embedded in paraffin to prepare a coronal section specimen at Bregma+1. The specimen was stained with Luxor Fast Blue (LFB) to visualize the myelin sheath, and images were acquired using a fluorescence microscope (KEYENCE #BZ-X710). The corpus callosum area and the LFB staining positive area in the corpus callosum of the obtained pathological specimen image were measured using an image analysis application (KEYENCE #BZ-H3C/BZ-H3XD), and the ratio (LFB staining positive area in the corpus callosum/corpus callosum area) was calculated. The intact group is a non-pathogenic group, and the […] control group were sampled after feeding the diet containing 0.3% cuprizone for 6 weeks.
In the table, the ratio of LFB staining positive area in the corpus callosum/corpus callosum area of the untreated group, fed with the cuprizone-free diet for 6 weeks, was regarded as 100%. As a result, the control group, fed with the cuprizone-containing diet for 6 weeks, decreased the ratio to 23.6%, and was confirmed to progress demyelination. The group, in which the cuprizone-containing diet was fed for 6 weeks and switched to the cuprizone-free diet, and the vehicle was administered, improved the ratio of area of LFB staining positive/area of corpus callosum to 50.1%. […] In addition, GSK239512 described in WO2013/107336 pamphlet was evaluated in the test to show the ratio of LFB staining positive area/corpus callosum area of 45.8%, in which no demyelination regeneration promoting action was shown as compared with the vehicle-administered group.

[4] = test system: rat oligodendrocyte progenitor cells; assay: Promotive activity of rat oligodendrocyte progenitor cell differentiation-1 (MBP gene expression, mRNA); type: cell-based; details: 4 days
Method in brief: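 Primary OPCs from 1-day-old SD rat forebrain, isolated by shaking off mixed glial cultures and seeded at 2×10^3 cells/well in B27/CNTF (10 ng/mL) differentiation medium with compound. MBP mRNA measured by one-step TaqMan real-time PCR and expressed as MBP/β-actin ratio.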

[5] = biological target: T1, human VDR (Homo sapiens, UniProt P11473); assay: Evaluation of VDR transcription activity in human osteoblasts (HOS cells), luciferase reporter; details: Activity (EC50, VDR transcription activity), HOS cells transfected with human VDR, human RXRα and DR3 luciferase reporter; 21 hours
T1 sequence (P11473 1-427): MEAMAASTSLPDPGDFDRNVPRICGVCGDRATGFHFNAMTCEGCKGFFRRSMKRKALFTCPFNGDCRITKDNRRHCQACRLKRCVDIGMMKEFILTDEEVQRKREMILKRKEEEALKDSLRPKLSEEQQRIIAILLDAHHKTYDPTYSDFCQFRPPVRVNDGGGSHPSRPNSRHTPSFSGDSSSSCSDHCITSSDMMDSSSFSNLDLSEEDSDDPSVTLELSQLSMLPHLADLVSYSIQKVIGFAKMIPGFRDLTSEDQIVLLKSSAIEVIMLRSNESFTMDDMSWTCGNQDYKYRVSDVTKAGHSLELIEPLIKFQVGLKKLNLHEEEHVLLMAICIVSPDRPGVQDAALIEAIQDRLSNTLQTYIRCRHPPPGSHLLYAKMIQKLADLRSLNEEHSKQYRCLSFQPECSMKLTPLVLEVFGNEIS
T1 sequence (P19793 1-462 partner): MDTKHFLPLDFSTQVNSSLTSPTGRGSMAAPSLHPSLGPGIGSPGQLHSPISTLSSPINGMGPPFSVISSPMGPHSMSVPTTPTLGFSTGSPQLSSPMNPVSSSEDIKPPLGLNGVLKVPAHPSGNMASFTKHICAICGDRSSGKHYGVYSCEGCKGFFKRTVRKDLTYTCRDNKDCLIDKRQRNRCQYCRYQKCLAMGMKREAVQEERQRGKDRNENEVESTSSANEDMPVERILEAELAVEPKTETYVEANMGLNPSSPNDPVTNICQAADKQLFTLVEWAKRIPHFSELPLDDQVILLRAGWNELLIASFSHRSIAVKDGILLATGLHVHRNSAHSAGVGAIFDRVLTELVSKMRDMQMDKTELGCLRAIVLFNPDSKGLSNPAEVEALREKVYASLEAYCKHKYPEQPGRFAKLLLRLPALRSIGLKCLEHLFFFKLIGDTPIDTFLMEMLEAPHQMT

Concentration in blood (mean ± SD) at brain Cmax [2] [nM]	Concentration in brain (mean ± SD) at brain Cmax [2] [pmol/g]	Kp [2]	EC50 [5] [nM]	SMILES	Mean (number of MBP-positive cells/number of Hoechst33342-positive cells) [1]	Ratio (%): area of LFB staining positive/area of corpus callosum, mean ([3]; 6 μg/kg oral once a day) [%]	enhancement in the MBP gene expression compared with the wells added with DMSO ([4]; 1 μM) [times]	activation at 1 µM ([4]; Rattus norvegicus, Oligodendrocyte progenitor cell, 96 h, read-out: promotive activity at T3 base (MBP gene expression; DMSO 0%, T3 100%), MBP/β actin mRNA) [%]	Ratio (%): area of LFB staining positive/area of corpus callosum, mean ([3]; 10 mg/kg oral once a day) [%]	Ratio (%): area of LFB staining positive/area of corpus callosum, mean ([3]; 2 μg/kg oral once a day) [%]
251 ± 9	562 ± 50	2.24		C[C@H](CN1CC[C@@H](C(C)(F)F)C1)[C@H]1CC[C@H]2/C(=C/C=C3C[C@@H](O)C[C@H](O)C3)CCC[C@]12C [Compound B034, (1R,3R)-5-(2-((1R,3aS,7aR,E)-1-((S)-1-((R)-3-(1,1-difluoroethyl)pyrrolidin-1-yl)propan-2-yl)-7a-methyloctahydro-4H-inden-4-ylidene)ethylidene)cyclohexane-1,3-diol]	0.57	88.1				
				O=C1CCCN1c1ccc(Oc2ccc3c(c2)CCN(C2CCC2)CC3)nc1 [GSK239512, reference compound]			1.8	18	45.8	
74 ± 1	80 ± 9	1.08	10 to 100	C[C@H](CN1CC[C@@H](CC(F)F)C1)[C@H]1CC[C@H]2/C(=C/C=C3C[C@@H](O)C[C@H](O)C3)CCC[C@]12C [Compound B043, (1R,3R)-5-(2-((1R,3aS,7aR,E)-1-((S)-1-((S)-3-(2,2-difluoroethyl)pyrrolidin-1-yl)propan-2-yl)-7a-methyloctahydro-4H-inden-4-ylidene)ethylidene)cyclohexane-1,3-diol]						84.9
